Like-named read-outs stand apart in the source and are kept apart here.
Target: T1, HIV protease (Human immunodeficiency virus type 1 group M subtype B, UniProt P04585)
T1 construct: HIV protease was expressed in E. coli [construct pBRT1 prt⁺; made in house; host or cells: E. coli
Experiment: Recombinant HIV Protease HPLC Assay
Assay type: biochemical
Description: The procedure is based on the capacity of the test compound to inhibit enzymatic cleavage by HIV protease of a decapeptide (the substrate) having an amino acid sequence which includes a known HIV protease cleavage site of a HIV polyprotein; see H.G. Krausslich et al., Proc. Natl. Acad. Sci. USA, 86, 807 (1989). Details of this assay together with the results obtained for exemplified compounds of formula 1 are described in the examples hereinafter.
Recombinant HIV Protease HPLC Assay:
HIV protease was expressed in E. coli [construct pBRT1 prt⁺, see W.G. Farmerie et al., Science, 236, 305 (1987)], according to the following protocol: Unless stated otherwise, all solutions are aqueous solutions.
E. coli cells containing the pBRT1 prt⁺ plasmid were used to inoculate a seed culture media composed of Luria-Bertani Broth containing 100µg/mL of ampicillin. Flasks were incubated at 37° under agitation for 17 h. Production flasks containing sterile M9 broth, supplemented with 100µg/ml of ampicillin, were inoculated at a level of 1% (v/v) using the seed culture described above. Total volume in each production flask was 500 mL in a 2 L Erlenmeyer flask. Flasks were incubated at 37° under agitation until a cell concentration corresponding to an optical density (λ = […]) of 0.6 was reached (no dilution). This time span was routinely 3-4 h. Flasks were then supplemented with 5mM isopropylthiogalactoside (IPTG, Research Organics, Cleveland, Ohio, USA) and incubation was continued until the cell concentration reached an optical density of 0.2 at 16-fold dilution. Flasks were then supplemented with 1mM phenylmethylsulfonyl fluoride (PMSF) and rapidly chilled to 4°. The bacterial cells were recovered by centrifugation at 4°. The wet pellet was stored at -70°.
All steps below were performed at 4° unless otherwise indicated. Thawed cells were mixed with buffer A [50 mM tris(hydroxymethyl)[…] HCl(Tris-HCl, pH 7.4); 0.6 mM ethylenediaminetetraacetic acid (EDTA); 0.375 M NaCl, 0.2% Nonidet P-40 ® (BDH Chemicals Ltd., Poole, UK); 1mM PMSF], at a ratio of one part cells to nine parts buffer A. Diatomaceous earth (Celite 545 ® , John Manville, Lompoc, CA, USA) was added at a ratio of two parts to one part of wet cell weight. The resulting slurry was homogenized at high speed (ca. 20,000 rpm) on a Waring ® industrial blender for 8 x 15 sec. pulses. Cell debris/Celite ® was collected by centrifugation and the resulting pellet was extracted with 4.5 parts of buffer A to one part wet solids using the homogenization procedure described above. Supernatants from both homogenization steps were combined and soluble protein was precipitated by the addition of solid (NH₄)₂SO₄ to yield a final concentration of 75% saturation. This mixture was agitated for 60 min and the precipitate was recovered by centrifugation. The resulting pellet was suspended in buffer B [50mM Tris-HCl, pH 8; 30 mM NaCl; 1 mM DL-dithiothreitol(DTT); 1 mM EDTA; 1 mM PMSF; 10% glycerol], and dialyzed for 18h against the same buffer.
An aliquot of the dialyzed extract containing 150 mg of the protein was loaded onto a Sephadex A25 ® anion exchange column. (Pharmacia, Uppsala, Sweden) with bed dimensions of 70 cm length and 2.5 cm diameter. The sample was eluted isocratically with buffer B at a linear flow rate of 10 cm/h. Fractions containing HIV protease activity (see below for assay description) were combined, and soluble protein was precipitated by the addition of saturated aqueous (NH₄)₂SO₄ to yield a total (NH₄)₂SO₄ concentration of 85% saturation. Precipitated protein was removed by centrifugation and the resulting pellet was dissolved in buffer C [50 mM 2-(4-morpholino)ethanesulfonic acid (MES), pH 5.5; 150 mM NaCl; 1 mM DTT; 1 mM EDTA; 10% glycerol). This preparation was dialyzed for 18h against buffer C, and then frozen at -70°. All crude extracts were purified by chromatography in aliquots containing 150 mg of protein in the same manner as described above. […]

[1] = recombinant HIV protease HPLC assay, values in parenthesis in text, read-out: IC₅₀
[2] = read-out: IC₅₀, recombinant HIV protease HPLC assay, values in parenthesis in text

IC50 [1]	Molecule	further results
91 nM	COC(=O)CCC(NC(=O)CC(O)C(CC1CCCCC1)NC(=O)OC(C)(C)C)C(=O)NCCc1ccc(SC)cc1 (stereo not drawn) [Boc-ACHPA-Glu(OMe)-NHCH₂CH₂-(4MeS-Ph)]	–
–	COC(=O)CC[C@H](NC(=O)C[C@H](O)[C@H](CC1CCCCC1)NC(=O)OC(C)(C)C)C(=O)NCCCc1ccc(F)cc1 [Boc-ACHPA-Glu(OMe)-NHCH₂CH₂CH₂-(4F-Ph)]	IC50 [2]: 83 nM
–	COC(=O)CC[C@H](NC(=O)C[C@H](O)[C@H](CC1CCCCC1)NC(=O)OC(C)(C)C)C(=O)NCCOc1ccccc1Cl [Boc-ACHPA-Glu(OMe)-NHCH₂CH₂O-(2Cl-Ph)]	IC50 [2]: 140 nM
260 nM	COC(=O)CC[C@H](NC(=O)C[C@H](O)[C@H](CC1CCCCC1)NC(=O)OC(C)(C)C)C(=O)NCCOCc1ccccc1 [Boc-ACHPA-Glu(OMe)-NHCH₂CH₂OBzl]	–
–	CC(C)(C)OC(=O)N[C@@H](CC1CCCCC1)[C@@H](O)CC(=O)N[C@@H](CCC(=O)O)C(=O)NCCc1ccc(Cl)cc1 [Boc-ACHPA-Glu-NHCH₂CH₂-(4-Cl-Ph)]	IC50 [2]: 12 nM
33 nM	COc1ccc(CCNC(=O)[C@H](CCC(=O)O)NC(=O)C[C@H](O)[C@H](CC2CCCCC2)NC(=O)OC(C)(C)C)cc1 [Boc-ACHPA-Glu-NHCH₂CH₂-(4-MeO-Ph)]	–
25 nM	CC(C)(C)OC(=O)N[C@@H](CC1CCCCC1)[C@@H](O)CC(=O)N[C@@H](CCC(=O)O)C(=O)NCCCc1ccco1 [Boc-ACHPA-Glu-NHCH₂CH₂CH₂-(2-furyl)]	–
33 nM	CC(C)(C)OC(=O)N[C@@H](CC1CCCCC1)[C@@H](O)CC(=O)N[C@@H](CCC(=O)O)C(=O)NCCCc1cccs1 [Boc-ACHPA-Glu-NHCH₂CH₂CH₂-(2-thienyl)]	–
–	CC(C)(C)OC(=O)N[C@@H](CC1CCCCC1)[C@@H](O)CC(=O)N[C@@H](CCC(=O)O)C(=O)NCCCc1ccc(F)cc1 [Boc-ACHPA-Glu-NHCH₂CH₂CH₂-(4F-Ph)]	IC50 [2]: 5.6 nM
–	CC(C)(C)OC(=O)N[C@@H](CC1CCCCC1)[C@@H](O)CC(=O)N[C@@H](CCC(=O)O)C(=O)NCCOc1ccccc1Cl [Boc-ACHPA-Glu-NHCH₂CH₂O-(2Cl-Ph)]	IC50 [2]: 6.6 nM
7.1 nM	CC(C)(C)OC(=O)NC(CC1CCCCC1)C(O)CC(=O)NC(CCC(=O)O)C(=O)NCCOCc1ccccc1 (stereo not drawn) [Boc-ACHPA-Glu-NHCH₂CH₂OBzl]	–
8.6 nM	CC(C)(C)OC(=O)N[C@@H](CC1CCCCC1)[C@@H](O)CC(=O)N[C@@H](CCC(=O)O)C(=O)NCCOc1ccccc1 [Boc-ACHPA-Glu-NHCH₂CH₂OPh]	–
600 nM	COC(=O)CC[C@H](NC(=O)CC[C@H](O)[C@H](CC1CCCCC1)NC(=O)OC(C)(C)C)C(=O)NCCCc1ccccc1 [Boc-ChaΨ[CH(OH)CH₂]Gly-Glu(OMe)-NHCH₂CH₂CH₂Ph]	–
14 nM	CC(C)(C)OC(=O)N[C@@H](CC1CCCCC1)[C@@H](O)CCC(=O)N[C@@H](CCC(=O)O)C(=O)NCCCc1ccccc1 [Boc-ChaΨ[CH(OH)CH₂]Gly-Glu-NHCH₂CH₂CH₂Ph]	–
120 nM	COC(=O)CC[C@H](NC(=O)C[C@H](O)[C@@H](NC(=O)OC(C)(C)C)[C@@H](O)C1CCCCC1)C(=O)NCCCc1ccccc1 [Boc-HACHPA-Glu(OMe)-NHCH₂CH₂CH₂Ph]	–
16 nM	CC(C)(C)OC(=O)N[C@H](CN[C@@H](CC1CC1)C(=O)N[C@@H](CCC(=O)O)C(=O)NCCc1ccccc1)Cc1ccccc1 [Boc-PheΨ[CH₂NH]Cpa-Glu-NHCH₂CH₂Ph]	–
12 nM	CCCC[C@H](NC[C@H](Cc1ccccc1)NC(=O)OC(C)(C)C)C(=O)N[C@@H](CCC(=O)O)C(=O)NCCCc1ccccc1 [Boc-PheΨ[CH₂NH]Nle-Glu-NHCH₂CH₂CH₂Ph]	–

IC50 [1]	Molecule	further results
30 nM	CC(C)[C@H](NC[C@H](Cc1ccccc1)NC(=O)OC(C)(C)C)C(=O)N[C@@H](CCC(=O)O)C(=O)NCCCc1ccccc1 [Boc-PheΨ[CH₂NH]Val-Glu-NHCH₂CH₂₂CH₂Ph]	–
160 nM	CC(=O)N[C@@H](CC1CCCCC1)[C@@H](O)CC(=O)N[C@@H](CCC(=O)O)C(=O)NCCCc1ccccc1 [CH₃C(O)-ACHPA-Glu-NHCH₂CH₂CH₂Ph]	–
–	CC(C)C[C@H](NC[C@H](Cc1ccccc1)NC(=O)OC(C)(C)C)C(=O)N[C@@H](CCC(=O)O)C(=O)NCCCc1ccccc1 [Example 1, Boc-PheΨ[CH₂NH]Leu-Glu-NHCH₂CH₂CH₂Ph]	IC50: 36 nM
–	COC(=O)CCC(NC(=O)CC(O)C(CC1CCCCC1)NC(=O)OC(C)(C)C)C(=O)NCCCc1ccccc1 (stereo not drawn) [Example 5, Boc-ACHPA-Glu(OMe)-NHCH₂CH₂CH₂Ph]	IC50: 110 nM
–	CCC(CC)C(=O)NC(CC1CCCCC1)C(O)CC(=O)NC(CCC(=O)O)C(=O)NCCc1ccccc1 (stereo not drawn) [Example 6, (C₂H₅)₂CHC(O)-ACHPA-Glu-NHCH₂CH₂Ph]	IC50: 93 nM
–	O=C(O)CCC(NC(=O)CC(O)C(CC1CCCCC1)NC(=O)C1CCCCC1)C(=O)NCCc1ccccc1 (stereo not drawn) [Example 12, (Cyclohexylcarbonyl)-ACHPA-Glu-NHCH₂CH₂Ph]	IC50: 130 nM
–	CCCCCCCCNC(=O)C(CCC(=O)O)NC(=O)CC(O)C(CC1CCCCC1)NC(=O)OC(C)(C)C (stereo not drawn) [Example 13, Boc-ACHPA-Glu-NH(CH₂)₇CH₃]	IC50: 40 nM
–	CC(C)(C)OC(=O)NC(CC1CC1)C(O)CC(=O)NC(CCC(=O)O)C(=O)NCCCc1ccccc1 (stereo not drawn) [Example 18, Boc-ACPPA-Glu-NHCH₂CH₂CH₂Ph]	IC50: 180 nM
–	CSc1ccc(CCNC(=O)C(CCC(=O)O)NC(=O)CC(O)C(CC2CCCCC2)NC(=O)OC(C)(C)C)cc1 (stereo not drawn) [Example 22, Boc-ACHPA-Glu-NHCH₂CH₂-(4MeS-Ph)]	IC50: 18 nM
–	CC(C)(C)OC(=O)NC(CC1CCCCC1)C(O)CC(=O)NC(CCC(=O)O)C(=O)OCCCc1ccccc1 (stereo not drawn) [Example 25, Boc-ACHPA-Glu-OCH₂CH₂CH₂Ph]	IC50: 85 nM
–	CC(C)(C)NC(=O)NC(CC1CCCCC1)C(O)CC(=O)NC(CCC(=O)O)C(=O)NCCCc1ccccc1 (stereo not drawn) [Example 26, (CH₃)₃CNHCO-ACHPA-Glu-NHCH₂CH₂CH₂Ph]	IC50: 120 nM
–	CC(C)(C)OC(=O)NC(CC1CCCCC1)C(O)CC(=O)NC(CCC(=O)O)C(=S)NCCCc1ccccc1 (stereo not drawn) [Example 31, Boc-ACHPA-GluΨ[CSNH]-NHCH₂CH₂CH₂Ph]	IC50: 380 nM
–	CC(C)(C)OC(=O)NC(C(O)CC(=O)NC(CCC(=O)O)C(=O)NCCCc1ccccc1)C(O)C1CCCCC1 (stereo not drawn) [Example 33, Boc-HACHPA-Glu-NHCH₂CH₂CH₂Ph]	IC50: 7.7 nM
150 nM	COC(=O)CC[C@H](NC(=O)C[C@H](O)[C@H](CC1CCCCC1)NC(=O)OC(C)C)C(=O)NCCOCc1ccccc1 [Ipoc-ACHPA-Glu(OMe)-NHCH₂CH₂OBzl]	–
6.3 nM	CC(C)OC(=O)N[C@@H](CC1CCCCC1)[C@@H](O)CC(=O)N[C@@H](CCC(=O)O)C(=O)NCCCc1ccccc1 [Ipoc-ACHPA-Glu-NH-CH₂CH₂CH₂Ph]	–
15 nM	COC(=O)N[C@@H](CC1CCCCC1)[C@@H](O)CC(=O)N[C@@H](CCC(=O)O)C(=O)NCCCc1ccccc1 [Moc-ACHPA-Glu-NHCH₂CH₂CH₂Ph]	–

Molecule	IC50 [1]	further results
CC(C[C@H](NC(=O)C[C@H](O)[C@H](CC1CCCCC1)NC(=O)OC(C)(C)C)C(=O)NCCCc1ccccc1)C(=O)O (stereo partly drawn) [Boc-ACHPA-{(S)-NHCH[CH₂CH(CH₃)COOH]}C(O)-NHCH₂CH₂CH₂Ph]	18 nM	–
Boc(4F-Phe)Ψ[CH₂NH]Cpa-Glu-NHCH₂CH₂-(4F-Ph)	15 nM	–
Boc-AHDHA-Glu-NHCH₂CH₂CH₂Ph	32 nM	–
Boc-PheΨ[CH₂NH]Cpa-Glu-NHCH₂CH₂-(4F-Ph)	8.4 nM	–
Boc-PheΨ[CH₂NH]Cpa-Glu-NHCH₂CH₂CH₂-(4F-Ph)	8 nM	–
Boc-homoACHPA-Glu-NHCH₂CH₂CH₂Ph	68 nM	–
